Measurements as given in PubChem BioAssay (NCI).
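Values below derive from 48-hour exposures of cells grown in 96-well plates, with endpoints linearly interpolated between the two concentrations bracketing the appropriate inhibition level. The concentration for full growth arrest is given as TGI.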

Columns and labels:
Assay in all cases: NCI-60 cell line screen, 48 h
[1] = system: DLD-1 colon
[2] = system: DMS 114 small cell lung
[3] = system: DMS 273 small cell lung
[4] = system: HCC-2998 colon
[5] = system: KM20L2 colon
[6] = system: M19-MEL melanoma
[7] = system: SF-268 CNS
[8] = system: SNB-75 CNS
[9] = system: SNB-78 CNS
[10] = system: SR leukemia
[11] = system: XF 498 CNS
[12] = system: HS 578T breast
[13] = system: PC-3 prostate
[14] = system: T-47D breast

Row | Structure (SMILES) | TGI [1] [µM] | TGI [2] [µM] | TGI [3] [µM] | TGI [4] [µM] | TGI [5] [µM] | TGI [6] [µM] | TGI [7] [µM] | TGI [8] [µM] | TGI [9] [µM] | TGI [10] [µM] | TGI [11] [µM] | TGI [12] [µM] | TGI [13] [µM] | TGI [14] [µM]
1 | CCCCCCC(C)OC(=O)/C=C(\CC(=O)OC(C)CCCCCC)C(=O)OC(C)CCCCCC (stereo not given) | > 100 | > 100 | > 100 | > 100 | > 100 | > 100 | > 100 | > 100 | > 100 | – | – | – | – | –
2 | CCN(CC)CCCC(C)NC(=O)c1ccc2c(c1)C(=O)c1ccccc1C2=O (stereo not given) | 45.4 | 20 | 46.2 | 33.5 | 51.9 | 32 | 80.4 | > 86.9 | 47.4 | 78.1 | 21.3 | – | – | –
3 | C=C1C(=O)O[C@@H]2[C@H](O)[C@@H](C)[C@@H]3C=CC(=O)[C@@]3(C)[C@H](OC(=O)C=C(C)C)[C@H]12 | 0.878 | 6.57 | 3.24 | 3.23 | 5.12 | 2.7 | 3.59 | 7.86 | – | – | 2.63 | – | – | –
4 | CCCCCCCCCCCCCCCCCCOCC(COP(=O)([O-])OCC[N+](C)(C)C)OC (stereo not given) | 17.7 | 26.8 | 10.5 | 9.93 | 9.02 | 16.8 | 51.8 | 37.2 | 49.2 | > 60.1 | 28.8 | > 100 | 57.2 | > 100
5 | COc1cc(C2c3cc4c(cc3[C@@H](Nc3cccc([N+](=O)[O-])c3)C3COC(=O)[C@H]23)OCO4)cc(OC)c1O (stereo not given in full) | 17.1 | 9.18 | 6.11 | 6.41 | > 42 | > 100 | > 51.5 | > 22.7 | 53.9 | – | > 40.2 | – | – | –
6 | C#CC(O)/C=C/C(O)CCCC(O)CC#CC(O)C#CC(O)CCCC(O)/C=C/CCCC(=O)CCCCCCCCCCCCCCCC(O)C(O)C#CC(=O)O (stereo not given) | – | – | – | > 50 | – | – | > 50 | > 50 | – | > 50 | – | > 50 | > 50 | > 50
7 | O=C1c2ccccc2-c2nc(/C=C/c3ccccc3)cc3c2c1nc1ccccc13 | – | – | – | 64.6 | – | – | > 100 | 47.7 | – | 50.6 | – | 62.6 | > 100 | > 100
8 | N#Cc1ccc(Oc2nc3ccc(C(F)(F)F)cc3nc2-c2ccccc2)cc1 | – | – | – | 32.3 | – | – | 76.4 | 32.1 | – | 9.86 | – | 44.5 | 27 | 38.5
9 | O=C1c2ccccc2C(=O)c2c(O)ccc(O)c21 | > 100 | > 100 | > 100 | > 100 | – | 69.2 | > 100 | > 100 | > 100 | – | – | – | – | –
10 | Cc1ccc(C(=O)Nc2ccc(S(=O)(=O)O)c3cc(S(=O)(=O)O)cc(S(=O)(=O)O)c23)cc1NC(=O)c1cccc(NC(=O)Nc2cccc(C(=O)Nc3cc(C(=O)Nc4ccc(S(=O)(=O)O)c5cc(S(=O)(=O)O)cc(S(=O)(=O)O)c45)ccc3C)c2)c1 (tested in a mixture with another compound) | – | – | – | > 50 | – | – | > 50 | > 50 | – | > 50 | – | > 50 | > 50 | > 50
11 | COC(=O)c1cc(C(=CCC[C@H]2CC[C@@]3(C)C(CCC4C3CC[C@@]3(C)C4CC[C@@H]3C(C)CCCC(C)C)C2)c2cc(Cl)c(OC(=O)c3ccccc3)c(C(=O)OC)c2)cc(Cl)c1OC(=O)c1ccccc1 (stereo not given in full) | – | – | – | > 10 | – | – | > 10 | > 10 | – | > 10 | – | > 10 | > 10 | > 10
12 | Cn1c(=O)c2c(nc(Nc3ccc(Cl)cc3)n3c(=O)n(-c4ccccc4)c(=O)n23)n(C)c1=O | – | – | – | > 100 | – | – | > 100 | > 100 | – | > 100 | – | > 100 | > 100 | > 100
13 | Cc1nc2ccccc2n1Cc1nnc(N)o1 | – | – | – | > 100 | – | – | > 100 | > 100 | – | > 100 | – | > 100 | > 100 | > 100
14 | C[C@]1(O)O[C@@H]2OCC[C@@H]2C2=C1C(=O)c1ccccc1C2=O | – | – | – | 40.6 | – | – | 26.3 | 74 | – | 45.5 | – | 82.4 | 54.8 | 59.1
15 | NC(=O)c1nnsc1NC=O | – | – | – | > 100 | – | – | > 100 | > 100 | – | > 100 | – | > 100 | > 100 | > 100
16 | Oc1ccc(O)c(CNc2ccccc2)c1 | – | – | – | 67.7 | – | – | > 100 | > 100 | – | 75.2 | – | > 100 | 30 | 37.9
17 | CC(=O)Oc1ccc(/C=C/C(=O)O[C@H]2CCCC[C@@H]2OC(=O)/C=C/c2ccc(OC(C)=O)c(OC(C)=O)c2)cc1OC(C)=O | – | – | – | 32.6 | – | – | 32.6 | 58.3 | – | > 100 | – | > 100 | > 100 | 47.1
18 | CC(=O)O[C@H]1C[C@H]2C(=S)Nc3ccccc3C(=S)N2C1 | – | – | – | > 100 | – | – | > 100 | > 100 | – | > 100 | – | > 100 | > 100 | > 100
19 | c1ccc(-c2cc(-c3cccs3)c(-c3cccs3)o2)cc1 | – | – | – | > 100 | – | – | > 100 | > 100 | – | > 100 | – | > 100 | > 100 | > 100
20 | CC(=O)N1c2ccccc2C(C)C1c1[nH]c2ccccc2c1C (stereo not given) | – | – | – | 34 | – | – | 62 | 50.1 | – | 51.8 | – | 42.4 | > 100 | 91.5
21 | CC(=O)OCC1=C(C)C[C@H]([C@@H](COC(C)=O)C2CCC3C4C[C@H]5O[C@]56CC=CC(=O)[C@]6(C)C4CC[C@@]32C)OC1=O (stereo not given in full) | – | – | – | 1.2 | – | – | 6.78 | 6.09 | – | 0.123 | – | 17.8 | 1.27 | 1.41
22 | COc1ccc2cc(C(=O)NCCCNC(=O)c3ccc4cc(OC)ccc4c3)ccc2c1 | – | – | – | > 100 | – | – | > 100 | 50.5 | – | > 100 | – | > 100 | > 100 | > 100
23 | C=CCN(c1cc(OC)c2[nH]cc(C)c2c1[N+](=O)[O-])S(C)(=O)=O | – | – | – | > 100 | – | – | > 100 | > 100 | – | > 100 | – | > 100 | > 100 | > 100
